According to patent US20240122938A1, “METHODS AND COMPOSITIONS FOR TREATING UVEAL MELANOMA” (INSERM (INSTITUT NATIONAL DE LA SANTÉ ET DE LA RECHERCHE …, priority 2019, published 2024):

Experiments:
[1] = tested on: CDK4, p27 and p21 in Mel270 cells; experiment: Western blot of cell cycle proteins; assay type: cell-based, human
Method: (§1) Western blotting was performed as previously described 25,26. Briefly, cell lysates (30 μg) were separated using SDS-PAGE, transferred onto a PVDF membrane and subsequently exposed to the appropriate antibodies, anti-BCL2 (ms-123-PO) was from neomarker, anti-caspase 3 (#610323) was from BD, anti-BAX (#8429) was from sigma, anti-PARP (#9542), anti-BCL-XL (#2762), anti-caspase 9 (#9502) and anti-PUMA (#4976) were from Cell Signaling Technology Inc, anti-MCL1 (#sc-819), anti-NOXA (#56169), and anti-HSP90 (#sc-13119) were from Santa Cruz biotechnology. The proteins were visualized using the ECL system (Amersham). The western blots shown are representative of at least 3 independent experiments.

[2] = tested on: Mel270 uveal melanoma cells; experiment: Mitochondrial membrane potential by TMRE staining; assay type: cell-based, human; conditions: Mel270; ABT-263 3 μM or 5 μM, 48 h
Method: (§2) FIG. 1. ABT-263 induces apoptosis of uveal melanoma cells. Detection of the mitochondrial membrane potential using TMRE staining in Mel270 and OMM1 uveal melanoma cells exposed to ABT-263 3 μM or 5 μM for 48 h in the absence or presence of QVD-OPh 20 μM.

[3] = tested on: OMM1 uveal melanoma cells; experiment: Mitochondrial membrane potential by TMRE staining; assay type: cell-based, human; conditions: OMM1; ABT-263 3 μM or 5 μM, 48 h
Method: as §2

Mel270 cells = experiment: Cell death / alive cells by Annexin V/DAPI FACS; assay type: cell-based, human
Method: FIG. 5: PERK dampens ABT-263 killing activity. (A) Q-PCR analysis of PERK level in Mel270 uveal melanoma cells treated with control (siCtl) or PERK (siPERK) siRNA for 48 hr. (B) Mel270 cells were treated with control (siCtl) or PERK (siPERK) siRNA for 48 hrs before being exposed to ABT-263 3 μM for 48 hr. FACS analyses of Annexin V/DAPI double staining in […] indicate alive (white) or dead (early, late apoptosis and necrosis in light grey) cells. (C) Mel270 cells were treated with ABT-263 5 μM or GSK2606414 5 μM alone or in combination for 48 h.
(§3) Cells were seeded at a density of 100 000 cells/well, in 6-well plate and treated with ABT-263 for indicated time. Cells were harvested using accutase enzyme, washed twice with ice-cold phosphate-buffered saline, resuspended in a buffer (Hepes 250 mM, NaCl 150 mM, KCl 5 mM, MgCl2 2 mM, CaCl2) 2 mM) with DAPI (1 μg/ml) and Annexin V-Alexa Fluor 647 conjugate (1/100) and incubated for 15 minutes at room temperature (25° C.) in the dark. Samples were immediately analyzed by a flow cytometer (MACS QUANT) using a laser at 405 nm excitation with a bandpass filter at 425 nm and 475 nm for DAPI detection and a laser at 635 nm excitation with a bandpass filter at 650 nm and 665 nm for Alexa Fluor 647 dye. Annexin and DAPI mono- or double positive cells were counted as dead cells.

[4] = tested on: 92.1 uveal melanoma cells xenografts; experiment: Subcutaneous tumor xenograft; assay type: in vivo, athymic nude mice; conditions: 92.1 xenografts
Method: FIG. 3. ABT-263 reduces tumor growth in vivo. (A) Primary 92.1 uveal melanoma cells were subcutaneously engrafted into athymic nude mice. Once the tumours reached 100 mm3, mice were treated daily with ABT-263. The arrow indicates the start of the treatment. The growth tumor curves were determined by measuring the tumor volume using the equation V=(L Å˜W2)/2. […] (B) Sub-cutaneous tumor weight from control (Ct) and ABT-263-treated mice is shown. (C) Blood biochemical analysis of mice xenografted with OMM1 cells. Serum activity of alanine transaminase (ALT) and aspartate transaminase (AST) was measured in control and ABT-263 by spectrophotometric methods after the end of treatment. Data are presented as mean±SD (n=5 per group). Animal experiments were performed in accordance with French law and approved by a local institutional ethical committee. The animals were maintained in a temperature-controlled facility (22° C.) on a 12-h light/dark cycle and provided free access to food (standard laboratory chow diet from UAR, Epinay-S/Orge, France). Human Mel270 uvealmelanoma cells were subcutaneously inoculated into 8-week-old female, immune-deficient, athymic, nude FOXN1nu mice (Harlan Laboratory). […] The growth tumor curves were determined after measuring the tumor volume using the equation V=(L×W2)/2. […]

[5] = tested on: PARP, caspase 9 and caspase 3 in primary and metastatic uveal melanoma cells; experiment: Western blot of PARP and caspases; assay type: cell-based, human
[6] = tested on: ER stress molecules in Mel270 cells; experiment: Western blot of ER stress molecules; assay type: cell-based, human
Method: Western blot of ER stress molecules in Mel270 cells treated with ABT-263 5 μM in the absence or presence of QVD-OPh 20 μM. Representative western blot are shown.
as §1, with “(Amersham).” for “(Amersham). The western blots shown are representative of at least 3 independent experiments.”

[7] = tested on: ER stress molecules in metastatic human uveal melanoma cells; experiment: Western blot of ER stress molecules; assay type: cell-based
Method: as §1

[8] = tested on: metastatic uveal melanoma cells; experiment: Cell death by Annexin V/DAPI staining (flow cytometry); assay type: cell-based, human
Method: as §3

[9] = tested on: primary uveal melanoma cell lines; experiment: as above; assay type: cell-based, human
Method: as §3

CC1(C)CCC(c2ccc(Cl)cc2)=C(CN2CCN(c3ccc(C(=O)NS(=O)(=O)c4ccc(N[C@H](CCN5CCOCC5)CSc5ccccc5)c(S(=O)(=O)C(F)(F)F)c4)cc3)CC2)C1 [ABT-263, 4-[4-[[2-(4-chlorophenyl)-5,5-dimethyl-1-cyclohexen-1-yl]methyl]-1-piperazinyl]-N-[[4-[[(1R)-3-(4-morpholinyl)-1-[(phenylthio)methyl]propyl]amino]-3-[(trifluoromethyl)sulfonyl]phenyl]sulfonyl]-benzamide]
cell cycle (reduced CDK4, increased p27 and p21) [1]: cell cycle arrest | mitochondrial membrane potential ΔΨm [2]: dose-dependently reduced | mitochondrial membrane potential ΔΨm [3]: dose-dependently reduced | cell death (Mel270 cells; ABT-263 3 μM): do not induce cell death | PARP cleavage and alive cell percentage, used alone (Mel270 cells; ABT-263 3 μM 48 hr): relative low effect | ABT-263 effect on viable cells combined with GSK2606414 (Mel270 cells; ABT-263 5 μM + GSK2606414 5 μM, 48 h): improved | ABT-263 effects and killing efficacy combined with PERK siRNA (Mel270 cells; siPERK 48 hrs then ABT-263 3 μM 48 hr): significantly improved | tumor growth [4]: almost no effect | cleavage of PARP, caspase 9 and caspase 3 ([5]; primary and metastatic cells): dose-dependent cleavage | full-length PARP protein and caspase 3 zymogen ([5]; time course, data not shown): time-dependent disappearance | ATF4 and CHOP level ([6]; Mel270 cells): enhanced | ER stress pathways (BIP, PERK, EIF2α, ATF4, IRE1α, XBP1, ATF6, CHOP) ([6]; kinetics analysis in Mel270): activates all branches of the ER stress pathways | PERK and IRE1α phosphorylation ([7]; metastatic cell lines): did not detect | induction of ATF4 and CHOP ([7]; metastatic cells): hardly detectable | cell death [8]: 80% | cell death [9]: 20-35%
